From patent US11292786B2, “Pyrimidine compounds and pharmaceutical compositions for preventing or treating cancers including the same” (HANMI PHARM. CO., LTD., priority 2018, dated 2022)

Assays:
[1] = Microsomal stability, human liver microsomes; format: in vitro ADME; settings: residual amount % after 1 hour at 37° C., 5 μM, 1 mg/ml human liver microsomes, NADPH regenerating system
Description: To confirm the reactivity of the test substances with intra-hepatic CYP450 enzymes, 5 μM test substances and 1 mg/ml human liver microsomes were incubated for 1 hour at a temperature of 37° C. in the presence of an NADPH regenerating system. After 1 hour, acetonitrile was added to terminate the reaction, and the supernatant obtained by centrifugation was analyzed by HPLC. The remaining amount % was calculated using the following equation using the value of the reacted sample for 1 hour relative to the value of the 0-minute sample as the peak value obtained as an analysis result. (Peak value of the sample reacted for 1 hour/peak value of the sample at 0 minutes)×100=residual amount %.

[2] = Microsomal stability, mice microsomes; format: in vitro ADME; settings: residual amount % after 1 hour at 37° C., 5 μM, NADPH regenerating system

Compound	Human microsomal stability (%) [1] [%]	Mice microsomal stability (%) [2] [%]
CCN(CC)C1CCN(c2cc(Nc3ncc(Cl)c(-c4c[nH]c5cc(C)ccc45)n3)cc(C3CC3)c2)CC1 [Control Compound 6]	49	29
Cc1ccc2c(-c3nc(Nc4cc(CN5C[C@@H](C)NC6(CC6)C5)cc(C5CC5)c4)ncc3Cl)c[nH]c2c1 [Example 27, (R)-5-chloro-N-(3-cyclopropyl-5-((5-methyl-4,7-diazaspiro[2.5]octan-7-yl)methyl)phenyl)-4-(6-methyl-1H-indole-3-yl)pyrimidine-2-amine]	72	69
